Literature values as cited in PubChem BioAssay AID1259410 (Chemical Carcinogenesis Research Information System (CCRIS), 2018).

Tested on: rodent tumor promotion studies, tumor incidence
Test: CCRIS tumor promotion studies
[1] = Carcinogen: 7,12-DIMETHYLBENZ(A)ANTHRACENE, Doses [Carcinogen]: TOP, Route [Carcinogen]: DERMAL, Route [Promoter]: DERMAL, Species: MOUSE, Strain/Sex: FEMALE

C[C@H](N)C(=O)NCC(=O)N[C@H]1CSSC[C@@H](C(=O)O)NC(=O)[C@H](CO)NC(=O)[C@H]([C@@H](C)O)NC(=O)[C@H](Cc2ccccc2)NC(=O)[C@H]([C@@H](C)O)NC(=O)[C@H](CCCCN)NC(=O)[C@H](Cc2c[nH]c3ccccc23)NC(=O)[C@H](Cc2ccccc2)NC(=O)[C@H](Cc2ccccc2)NC(=O)[C@H](CC(N)=O)NC(=O)[C@H](CCCCN)NC1=O
outcome (Carcinogen: N-METHYL-N'-NITRO-N-NITROSOGUANIDINE, 70-25-7, Doses [Carcinogen]: 25 UG/ML DRINKING WATER FOR 25 WK, Doses [Promoter]: 0, 100, 200 UG/KG IN OLIVE OIL 1/2 D BEGINNING POST CARCINOGEN DOSE FOR DURATION OF STUDY (STUDY DURATION: 52 WK), Doses [Promoter]: 0, 100, 200 UG/KG IN OLIVE OIL 1/2 D BEGINNING POST CARCINOGEN DOSE FOR DURATION OF STUDY (STUDY DURATION: 52 WK), Route [Carcinogen]: ORAL, Route [Promoter]: SUBCUTANEOUS, Species: RAT, Strain/Sex: WISTAR/MALE): glandular stomach: adenocarcinoma

CNCCCN1c2ccccc2CCc2ccccc21
outcome (Carcinogen: AZOXYMETHANE, 25843-45-2, Doses [Carcinogen]: 7.4 MG/KG BW IN 0.9% SALINE 1/WK FOR 10 WK, Doses [Promoter]: 0, 10 MG/KG BW IN 0.9% SALINE 1/2 D FOR 10 WK ON SAME DAY AS CARCINOGEN ADMINISTRATION (STUDY DURATION: 35 WK), Route [Carcinogen]: SUBCUTANEOUS, Route [Promoter]: SUBCUTANEOUS, Species: RAT, Strain/Sex: WISTAR/MALE): colon: tumor

C/C(=C\CO)CCC[C@H](C)CCC[C@H](C)CCCC(C)C
outcome (Carcinogen: 7,12-DIMETHYLBENZ[A]ANTHRACENE, 57-97-6, Doses [Carcinogen]: 100 UG ONCE, Doses [Promoter]: 0, 100 MG 2 D/WK FOR 16 WK BEGINNING 1 WK POST CARCINOGEN DOSE (STUDY DURATION: 41 WK), Route [Carcinogen]: DERMAL, Route [Promoter]: DERMAL, Species: MOUSE, Strain/Sex: ICR/FEMALE): skin: tumor

C1CCCCC1
outcome (Carcinogen: DIMETHYLBENZ[A]ANTHRACENE, 57-97-6, Doses [Carcinogen]: 0.2 UMOL (51.2 UG) IN O.2 ML ACETONE ONCE, Doses [Promoter]: 0, 100 µL 3/WK ADMINISTERED 7 D POST CARCINOGEN DOSE AND CONTINUING FOR DURATION OF STUDY (STUDY DURATION: 1 YR), Route [Carcinogen]: DERMAL, Route [Promoter]: DERMAL, Species: MOUSE, Strain/Sex: SWISS/FEMALE): skin: tumor, squamous cell papilloma, keratoacanthoma

CNCCC(Oc1ccc(C(F)(F)F)cc1)c1ccccc1 (centres undefined)
outcome (Carcinogen: 7,12-DIMETHYLBENZ[A]ANTHRACENE, 57-97-6, Doses [Carcinogen]: 20 MG IN 2 ML PEANUT OIL ONCE, Doses [Promoter]: 0, 16 MG/M2 5 D/WK FOR 15 WK BEGINNING POST CARCINOGEN DOSE (STUDY DURATION: 15 WK), Route [Carcinogen]: GAVAGE, Route [Promoter]: INTRAPERITONEAL, Species: RAT, Strain/Sex: SPRAGUE-DAWLEY/FEMALE): mammary gland: tumor | outcome (Carcinogen: 7,12-DIMETHYLBENZ[A]ANTHRACENE, 57-97-6, Doses [Carcinogen]: 20 MG IN 2 ML PEANUT OIL ONCE, Doses [Promoter]: 0, 40 MG/M2 5 D/WK FOR 15 WK BEGINNING POST CARCINOGEN DOSE (STUDY DURATION: 15 WK), Route [Carcinogen]: GAVAGE, Route [Promoter]: INTRAPERITONEAL, Species: RAT, Strain/Sex: SPRAGUE-DAWLEY/FEMALE): mammary gland: tumor

Cc1cc(C)cc(O)c1
outcome [1]: integumentary system (skin)

Cn1cnc([N+](=O)[O-])c1S
outcome (Carcinogen: UV IRRADIATION, Doses [Carcinogen]: 0.53 J/CM2 INCREASED BY 20% EVERY 2 WK TO 1.60 J/CM2 AND MAINTAINED AT 1.60 J/CM2 UNTIL DEATH, ADMINISTERED 5 D/WK FOR 1, Doses [Promoter]: 0, 15 UG/G BEGINNING 2 WK POST FIRST CARCINOGEN DOSE ADMINISTERED 2 HR PRIOR TO EACH CARCINOGEN DOSE (STUDY DURATION: 30, Route [Carcinogen]: DERMAL, Route [Promoter]: INTRAPERITONEAL, Species: MOUSE, Strain/Sex: SKH/HRL/FEMALE): skin: tumor

Oc1ccc(F)cc1
outcome [1]: integumentary system (skin)

CC(=O)OCC(CO)OC(C)=O (centres undefined)
outcome (Carcinogen: 4-Nitroquinoline 1-oxide, 56-57-5, Doses [Carcinogen]: 10 ppm in drinking water from wks 0-10, study duration 35 wk, Doses [Promoter]: 0, 2.75%, 5.5%, 11% in diet from wks 11-35, study duration 35 wks, Doses [Promoter]: 0, 2.75%, 5.5%, 11% in diet from wks 11-35, study duration 35 wks, Route [Carcinogen]: Oral, Route [Promoter]: Oral, Species: Rat, Strain/Sex: Sprague-Dawley/Male (30/Group)): tongue: squamous cell papillomas and carcinomas; oral cavity: squamous cell papi | outcome (Carcinogen: 7,12-Dimethylbenz(a)anthracene, 57-97-6, Doses [Carcinogen]: 100 ug in 100 ul acetone once at 6 wk of age, Doses [Promoter]: 0, 12, 30, 75 mg, 5 d/wk beginning 1 wk after carcinogen administration for 35 wk, study duration 36 wk, Route [Carcinogen]: Dermal, Route [Promoter]: Dermal, Species: Mouse, Strain/Sex: ICR/Female): skin: papillomas | outcome (Carcinogen: 7,12-Dimethylbenz(a)anthracene, 57-97-6, Doses [Carcinogen]: 100 ug in 100 ul acetone once at 6 wk of age, Doses [Promoter]: 0, 30, 75 mg, twice daily, 5 d/wk beginning 1 wk after carcinogen administration for 35 wk, study duration 36 wk, Route [Carcinogen]: Dermal, Route [Promoter]: Dermal, Species: Mouse, Strain/Sex: ICR/Female): skin: papillomas and squamous cell carcinomas

CCOC(N)=O
outcome (Carcinogen: 7,12-DIMETHYLBENZ(A)ANTHRACENE, 57-97-6, Doses [Carcinogen]: 51.2 UG IN 100 UG ACETONE ONCE, Doses [Promoter]: 0, 10% IN ACETONE 2/WK FOR 50 WK BEGINNING 2 WK POST CARCINOGEN DOSE (STUDY DURATION: 52 WK), Route [Carcinogen]: DERMAL, Route [Promoter]: DERMAL, Species: MOUSE, Strain/Sex: HR/HR/MALE,FEMALE): skin: papilloma

CC(C)C[C@H]1C(=O)N2CCC[C@H]2[C@]2(O)O[C@](NC(=O)[C@@H]3C=C4c5cccc6[nH]c(Br)c(c56)C[C@H]4N(C)C3)(C(C)C)C(=O)N12
outcome (Carcinogen: 3-METHYLCHOLANTHRENE, 56-49-5, Doses [Carcinogen]: 1.5 MG IN TRICAPRYLIN ONCE, Doses [Promoter]: 0, 3 MG/KG/D IN 50% ETHANOL FOR 16 CONSECUTIVE DAYS BEGINNING 2 D PRIOR TO CARCINOGEN DOSE AND AGAIN FOR 14 D BEGINNING, Route [Carcinogen]: SUBCUTANEOUS, Route [Promoter]: SUBCUTANEOUS, Species: RAT, Strain/Sex: SPRAGUE-DAWLEY/MALE): injection site: tumor | outcome (Carcinogen: N-METHYL-N'-NITRO-N-NITROSOGUANIDINE, 70-25-7, Doses [Carcinogen]: 40 ML OF A 50 UG/ML DEIONIZED WATER SOLUTION 1/2 D FOR 25 WK (AVERAGE TOTAL DOSE 170 MG), Doses [Promoter]: 0, 1, 2, MG/KG IN 0.1 ML/KG OLIVE OIL 1/2 D FOR 25 WK ADMINISTERED POST CARCINOGEN (STUDY DURATION: 52 WK), Doses [Promoter]: 0, 1, 2, MG/KG IN 0.1 ML/KG OLIVE OIL 1/2 D FOR 25 WK ADMINISTERED POST CARCINOGEN (STUDY DURATION: 52 WK), Route [Carcinogen]: ORAL, Route [Promoter]: SUBCUTANEOUS, Species: RAT, Strain/Sex: WISTAR/MALE): glandular stomach: adenocarcinoma

CC1(OO)C=C(C(C)(C)C)C(=O)C(C(C)(C)C)=C1
outcome (Carcinogen: 7,12-DIMETHYLBENZ[A]ANTHRACENE, 57-97-6, Doses [Carcinogen]: 20 NMOL IN 200 µL ACETONE ONCE, Doses [Promoter]: 0, 8 UMOL 2/WK FOR 50 WK BEGINNING 10 D POST CARCINOGEN DOSE (STUDY DURATION: 52 WK), Route [Carcinogen]: DERMAL, Route [Promoter]: DERMAL, Species: MOUSE, Strain/Sex: SENCAR/FEMALE): skin: papilloma or carcinoma | outcome (Carcinogen: 7,12-DIMETHYLBENZ[A]ANTHRACENE, 57-97-6, Doses [Carcinogen]: 20 NMOL IN 200 µL ACETONE ONCE, Doses [Promoter]: 0, 20 UMOL 2/WK FOR 50 WK BEGINNING 10 D POST CARCINOGEN DOSE (STUDY DURATION: 52 WK), Route [Carcinogen]: DERMAL, Route [Promoter]: DERMAL, Species: MOUSE, Strain/Sex: SENCAR/FEMALE): skin: papilloma or carcinoma

O=C1O[C@H]([C@H](O)CO)C(O)=C1O
outcome (Carcinogen: N-BUTYL-N-(4-HYDROXYBUTYL)NITROSAMINE, 3817-11-6, Doses [Carcinogen]: 0.05% IN DRINKING WATER FOR 4 WK, Doses [Promoter]: 0, 5% IN DIET FOR 32 WK (STUDY DURATION: 36 WK), Route [Carcinogen]: ORAL, Route [Promoter]: ORAL, Species: RAT, Strain/Sex: F344/MALE): urinary bladder: papilloma, carcinoma | outcome (Carcinogen: N-BUTYL-N-(4-HYDROXYBUTYL)NITROSAMINE, 3817-11-6, Doses [Carcinogen]: 0.05% IN DRINKING WATER FOR 4 WK, Doses [Promoter]: 0, 5% IN DIET FOR 32 WK BEGINNING POST CARCINOGEN (STUDY DURATION: 36 WK), Route [Carcinogen]: ORAL, Route [Promoter]: ORAL, Species: RAT, Strain/Sex: F344/MALE): bladder: papilloma, carcinoma
